Measured values from patent US20240103011A1, “LIQUID BIOPSY YIELD ENHANCEMENT” (priority 2021, published 2024).
Where two headings read alike, the source gives them in different places.

What was measured:
HSC = conditions: in vivo; cited from earlier work
T cell lymphoma = conditions: T cell lymphoma/Partial remission
Protocol: (§1) A sample from the subjects is collected at the time of diagnosis (“baseline sample”) and analyzed for tumor mutational burden (TMB) and microsatellite instability (MSI). Subjects are then administered a single dose of plerixafor (10-20 mg), a single dose of motixafortide (0.5-2 mg/kg), a single dose of MGTA-145 (0.0075-0.3 mg/kg), or a single dose of MGTA-145 (0.0075-0.3 mg/kg) in combination with a single dose of plerixafor (0.24 mg/kg), and blood sample collected 1-72 hours later. This blood sample (“LBYE+ sample”) is analyzed for TMB and MSI.
(§2) The change/difference of biomarker detected in the LBYE+ sample and the baseline sample is used by a clinician to predict treatment response and/or make treatment decision.

Colon Cancer = conditions: Colon Cancer/Relapse
Protocol: as §1, §2

c1cc(CN2CCCNCCNCCCNCC2)ccc1CN1CCCNCCNCCCNCC1 [Plerixafor, 1-{[4-(1,4,8,11-tetrazacyclotetradec-1-ylmethyl)phenyl]methyl}-1,4,8,11-tetrazacyclotetradecane]
HSC mobilization (HSC): rapidly mobilize HSC within hours | VAF, LBYE+ Sample Status (T cell lymphoma; TET2, baseline 23.80%): 20.20% | Genomic variants, LBYE+ Sample Status (T cell lymphoma; after intervening agent, baseline TET2): TET2 | TMB, LBYE+ Sample Status (T cell lymphoma; baseline 0.4 m/MB): 0.5 m/MB | MSI, LBYE+ Sample Status (T cell lymphoma; baseline Stable): Stable | VAF, LBYE+ Sample Status (Colon Cancer; APC, baseline 7.80%): 7.30% | VAF, LBYE+ Sample Status (Colon Cancer; TP53, baseline 6.30%): 6.30% | TMB, LBYE+ Sample Status (Colon Cancer; baseline 0.5 m/MB): 1.1 m/MB | MSI, LBYE+ Sample Status (Colon Cancer; baseline Stable): Stable
